Measured values: patent US20070031342A1, “Sustained release microparticles for pulmonary delivery” (Nektar Therapeutics, priority 2005, published 2007)
Like-named read-outs stand apart in the source and are kept apart here.

What was measured:
[1] = Rabbit aerosol inhalation model, serum sCT concentration after intratracheal aerosol administration; format: in vivo; details: single intratracheal aerosol administration
Description: The in vivo dissolution properties of the composition were determined in a rabbit aerosol inhalation model. In this test, the serum sCT concentration was measured for increasing time following intratracheal aerosol administration for sustained release microparticles comprising 20% w/w encapsulated sCT and compared to the concentration of a control sample comprising neat 20% w/w sCT powder. […] In contrast, the absorption of the encapsulated sCT of the microparticles reaches its maximum blood levels at 4 hours post administration and are sustained to at least 24 hours. […] Accordingly, the encapsulated sCT microparticles prepared according to the above method provide improved sustain release results over the unencapsulated sCT, by increasing the duration over which the drug is released to provide a more controlled dose of the sCT drug.

[2] = cited from earlier work

Row | Structure (SMILES) | tmax ([1]; serum, inhaled or intranasal, read-out: time to maximum concentration in the blood (converted)) | time after which blood levels return to baseline [1] | tmax ([2]; following inhalation delivery, Pulmicort Turbuhaler) | absolute bioavailability ([2]; inhaled) | bioavailability ([2]; nasal) | bioavailability ([2]; oral)
1 | CC(C)C[C@H](NC(=O)[C@H](CCCCN)NC(=O)CNC(=O)[C@H](CC(C)C)NC(=O)[C@@H](NC(=O)[C@@H]1CSSC[C@H](N)C(=O)N[C@@H](CO)C(=O)N[C@@H](CC(N)=O)C(=O)N[C@@H](CC(C)C)C(=O)N[C@@H](CO)C(=O)N[C@@H]([C@@H](C)O)C(=O)N1)C(C)C)C(=O)N[C@@H](CO)C(=O)N[C@@H](CCC(N)=O)C(=O)N[C@@H](CCC(=O)O)C(=O)N[C@@H](CC(C)C)C(=O)N[C@@H](Cc1c[nH]cn1)C(=O)N[C@@H](CCCCN)C(=O)N[C@@H](CC(C)C)C(=O)N[C@@H](CCC(N)=O)C(=O)N[C@H](C(=O)N[C@@H](Cc1ccc(O)cc1)C(=O)N1CCC[C@H]1C(=O)N[C@@H](CCCNC(=N)N)C(=O)N[C@H](C(=O)N[C@@H](CC(N)=O)C(=O)N[C@H](C(=O)NCC(=O)N[C@@H](CO)C(=O)NCC(=O)N[C@H](C(=O)N1CCC[C@H]1C(N)=O)[C@@H](C)O)[C@@H](C)O)[C@@H](C)O)[C@@H](C)O [neat salmon calcitonin] | 15 min | 3 h |  |  |  | 
2 | CCCC1O[C@@H]2C[C@H]3[C@@H]4CCC5=CC(=O)C=C[C@]5(C)[C@H]4[C@@H](O)C[C@]3(C)[C@]2(C(=O)CO)O1 (stereo partly drawn) [budesonide] |  |  | ~30 min | 39% | 21±6% | 10.7±4.3%
